Experiment [1] deals with Mycobacterium tuberculosis. Kind of experiment: Inhibition of Mycobacterium tuberculosis UGM assessed as conversion of UDP-Galf into UDP-Galp at 500 uM by HPLC method. Also on record: scale not given: the % may be the effect or the level left.
Experiment [2] deals with Mycobacterium tuberculosis. Kind of experiment: Inhibition of Mycobacterium tuberculosis UGM assessed as inhibition of conversion of UDP-Galf into UDP-Galp at 500 uM by HPLC method.

A word on the inhibition: it is the percentage by which the read-out fell short of the control. For the compound `O=c1ccn(C[C@@H](O)[C@@H](O)[C@H](O)[C@H](CO)O[C@@H]2O[C@H](CO)[C@H](O)[C@H](O)[C@H]2O)c(=O)[nH]1`, the Activity in experiment [1] was found to be 39%. The inhibition in experiment [2] worked out at 28%.
The corresponding values for `O=c1ccn(C[C@@H](O)[C@@H](O)[C@H](O)[C@H](CO)O[C@H]2O[C@H](CO)[C@H](O)[C@H](O)[C@H]2O)c(=O)[nH]1` are 47% and 30%.

The record behind these values is ChEMBL document CHEMBL3400030, “Synthesis and biological evaluation of nonionic substrate mimics of UDP-Galp as candidate inhibitors of UDP galactopyranose mutase (UGM)” (Bioorg Med Chem Lett, 2015).
